This note sets out measurements from patent publication US20260007679A1, “METHODS OF TREATING CANCER USING 3-(4-((4-(MORPHOLINOMETHYL)BENZYL)OXY)-1-OXOISOINDOLIN-2-YL)PIPERIDINE-2,6-DIONE” (Celgene Corporation, priority 2012, published 2026).

Experiment [1] deals with Revlimid-resistant NCI-H929 R3-10. Kind of experiment: Proliferation and viability by 7-AAD staining. The format is cell-based. As to conditions: Homo sapiens, NCI-H929, 120 h, read-out: IC50, proliferation.
Experiment [2] deals with normal donor peripheral blood mononuclear cells. Kind of experiment: Immunoglobulin M and G production. Format: cell-based. The settings on record: Homo sapiens, PBMC. How it is done: Immunoglobulin M and G (“IgG and IgM”) production was measured from normal donor peripheral blood mononuclear cells by culturing in the presence of the B cell differentiation factors recombinant human IL-2 (20U/mL), IL-10 (50 ng/mL), IL-15 (10 ng/mL), His-tagged CD40 Ligand (50 ng/mL), polyHistidine mouse IgG1 antibody (5 μg/mL), and ODN 2006-Human TLR9 ligand (10 μg/mL) for 4 days, followed by IL-2, IL-10, IL-15, and IL-6 (50 ng/mL) for an additional 3 days. IgM and IgG were measured by ELISA.

Experiment [3] relates to Revlimid-resistant NCI-H929 R4-10. Briefly: Proliferation and viability by 7-AAD staining. The format is cell-based. The settings on record: Homo sapiens, NCI-H929, 120 h, read-out: IC50, proliferation.
The test system of experiment [4] is Revlimid-resistant NCI-H929 R1-10. Kind of experiment: Proliferation and viability by 7-AAD staining. Format: cell-based. The settings on record: Homo sapiens, NCI-H929, 120 h, read-out: IC50, proliferation.
Experiment [5] has as its system Revlimid-resistant NCI-H929 R2-10. Kind of experiment: Proliferation and viability by 7-AAD staining. The format is cell-based. The settings on record: Homo sapiens, NCI-H929, 120 h, read-out: IC50, proliferation.
In experiment [6] the test system is megakaryocyte progenitor cells (normal human bone marrows). Kind of experiment: Megakaryocyte colony formation assay. The format is cell-based. As to conditions: Homo sapiens, 14-16 days. How it is done: Colony formation assay was conducted with normal human bone marrows treated in semi-solid collagen matrix with compound/IL-3/IL-6/Tpo for 14-16 days, and the results are summarized in Table 7.

The target in experiment [7] is T1, endogeneous human CRBN (U266 extract) (Homo sapiens, UniProt Q96SW2).
T1 construct: endogenous in cells; host or cells: U266 human multiple myeloma cells (NP-40 lysate)
Kind of experiment: Thalidomide affinity bead competition assay. The settings on record: 3 μM. The format is binding. How it is done:
Affinity beads coupled to a thalidomide acid analog were incubated with the U266 extracts and, after extensive washing of the beads, the bound proteins were eluted. CRBN binding to the thalidomide-coupled affinity beads was determined by quantitative CRBN immunoblot determination.

Experiment [8] deals with NCI-H929 cells (Control, Revlimid-sensitive, parental). Briefly: Proliferation and viability by 7-AAD staining. The format is cell-based. As to conditions: Homo sapiens, NCI-H929, 120 h, read-out: IC50, proliferation.
The subject of experiment [9] is purified primary human T cells stimulated using immobilized anti-CD3 antibody. Briefly: T-cell costimulation, IL-2 production. The format is cell-based. The procedure: CRBN ubiquitination was measured in HEK293T cells, which were transfected with an amino-terminal His-biotin-tagged CRBN construct, then preincubated with compounds for one hour followed by treatment with the MG132 proteasome inhibitor (to arrest degradation of ubiquitinated proteins). Cells were lysed and processed to measure CRBN ubiquitination by SDS-PAGE and immunoblot analysis using an anti-ubiquitin antibody. Cell proliferation studies were conducted in lenalidomide-sensitive and refractory multiple myeloma cells. […] T-cell costimulation was measured in purified primary human T cells stimulated using immobilized anti-CD3 antibody in cell culture for 2 days, and cytokine secretion was measured by ELISA.

Experiment [10] deals with DoHH2 Follicular Lymphoma xenograft. Kind of experiment: DoHH2 Follicular Lymphoma xenograft model. The format is in vivo, mouse.
Experiment [11] deals with WSU-DLCL2 DLBCL xenograft. Kind of experiment: WSU-DLCL2 DLBCL xenograft model.
Setting [12] is: Bone Marrow ID 0090128, read-out: Immature Colony IC50.
Where [13] appears, read: Bone Marrow ID 0090128, read-out: Intermediate Colony IC50.
Setting [14] is: Bone Marrow ID 0090616, read-out: Immature Colony IC50.
Setting [15] is: Bone Marrow ID 0090616, read-out: Intermediate Colony IC50.
[16] abbreviates: Bone Marrow ID 0090714, read-out: Immature Colony IC50.
Setting [17] is: Bone Marrow ID 0090714, read-out: Intermediate Colony IC50.
The mark [18] stands for this setting: 30 mg/kg monotherapy, Compound I-S: 84% S-enantiomer, 16% R-enantiomer.
The mark [19] stands for this setting: 30 mg/kg with Rituxan 1 mg/kg, Compound I-S: 84% S-enantiomer, 16% R-enantiomer.
Where [20] appears, read: 40 mg/kg monotherapy, Compound I-S: 91% S-enantiomer, 9% R-enantiomer.

Like-named read-outs stand apart in the source and are kept apart here.

A word on the EC50: it is the concentration giving half of the maximal effect. Read a high EC50 as lower potency in that assay.

With `Nc1cccc2c1C(=O)N(C1CCC(=O)NC1=O)C2=O` (stereo not shown) [Pomalidomide, pomalidomide, reference compound], the IC50 in [1] was 6300 nM; in [2] (read-out: IgG production IC50), 63 nM; in experiment [2] (read-out: IgM production IC50), 17 nM; in [3] it was 14000 nM; in experiment [4] it was above 30000 nM; in experiment [5] it was above 30000 nM. Moreover, the IC50 is above 10000 nM in experiment [6] (setting [12]); above 10000 nM in experiment [6] (setting [13]); 350 nM in [6] (setting [14]); 1400 nM in experiment [6] (setting [15]); 1000 nM in [6] (setting [16]); above 10000 nM in experiment [6] (setting [17]). The IC50 in [8] turned out to be 90 nM. Moreover, the “less CRBN bound to the affinity beads” value in [7] is “approximately 50%”. In [9], this compound yielded an EC50 of 10 nM.
With `Nc1cccc2c1CN(C1CCC(=O)NC1=O)C2=O` (stereo not shown) [Revlimid, lenalidomide, reference compound], the “% TGD ((T − C)/C)” value in experiment [10] (setting [18]) was 12%; in [10] (setting [19]), 52%; in [10] (setting [20]), 17%. In addition, the “% TGI at D12 (T/C)” value in experiment [10] (setting [18]) is 19%; in experiment [10] (setting [19]), 54%; in experiment [10] (setting [20]) it was 49%. In addition, the IC50 in [6] (setting [12]) was 1300 nM; in experiment [6] (setting [13]) it was above 10000 nM; in experiment [6] (setting [14]) it was 560 nM; in experiment [6] (setting [15]) it was 1300 nM; in [6] (setting [16]), 410 nM; in experiment [6] (setting [17]) it was above 10000 nM. Besides, the “Tumor Free Survival on Day 44” value in experiment [11] (30 mg/kg in combination with Rituxan 2 mg/kg iv qw) is reported as 6/9.
As for rituximab [Rituxan, reference compound], in experiment [10] (1 mg/kg monotherapy), the “% TGD ((T − C)/C)” value stood at 34% and the “% TGI at D12 (T/C)” value came to 19%. Besides, the “Tumor Free Survival on Day 44” value in experiment [11] (Rituxan 2 mg/kg iv qw alone) is recorded as 2/10.
